The source of these data is PubChem BioAssay (NCI).

Molecules are shown by their SMILES.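 1) Cells in 96-well plates. 2) Compound, 48 h, 5 concentrations. 3) Linear interpolation between surrounding doses. 4) Unreached endpoint = highest concentration. GI50: concentration for 50% inhibition of growth. TGI: concentration producing complete growth inhibition.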

Common to all, as to experiment: inhibition of tumour cell growth, NCI panel, 48 h
Experiment [1] relates to A549 NSCLC.
Experiment [2] concerns ACHN renal.
The test system of experiment [3] is K-562 leukemia.
In experiment [4] the test system is M14 melanoma.
The test system of experiment [5] is NCI-H23 lung.
Experiment [6] relates to NCI-H522 lung.
In experiment [7] the test system is SF-539 CNS.
In experiment [8] the test system is SW-620 colon.
The test system of experiment [9] is U251 CNS.

`COC(=O)N[C@H]1CCc2c(Br)c(OC)c(OC)c(OC)c2-c2ccc(SC)c(=O)cc21`: the GI50 in experiment [1], in experiment [2], in experiment [3], in experiment [4], in experiment [5] and in experiment [6] was under 0.01 µM throughout. The GI50 in [7], in experiment [8] and in experiment [9] was under 0.01 µM in each case. Further, the TGI in [1] is over 52.6 µM; in experiment [2] it was 25.4 µM; in experiment [3], 15.9 µM; in [4], 8.53 µM; in experiment [5] it was 18.5 µM; in [6], 1.22 µM. Also, the TGI is under 0.01 µM in [7], 19.7 µM in experiment [8] and 15 µM in [9].
For the compound `COc1ccc2nc(N/N=C(\C)c3ccccn3)cc(C)c2c1`, the GI50 in experiment [1] was 0.315 µM; in experiment [2], 0.22 µM; in [3] it was 0.303 µM; in experiment [4], 0.212 µM; in [5] it was 0.44 µM; in experiment [6], 0.292 µM. For the same compound, the GI50 in experiment [7] is 0.269 µM; in experiment [8], 0.381 µM; in [9], 0.261 µM. Moreover, the TGI was 3.24 µM in [1]; 1.21 µM in experiment [2]; 1.3 µM in experiment [3]; 1.13 µM in [4]; 4.46 µM in experiment [5]; 1.88 µM in [6]. The results for the TGI in experiment [7], in experiment [8] and in experiment [9] were 1.23 µM, 1.75 µM and 1.28 µM, respectively.
Turning to `Nn1c(-c2ccccc2)nc2ccc(Br)cc2c1=O`, the TGI in experiment [1], in [2], in experiment [3], in [4], in experiment [5] and in [6] was over 100 µM each time. Moreover, the TGI in experiment [7], in [8] and in [9] was over 100 µM each time.
For the compound `CC(=O)O/C=C(/C=C/OC(C)=O)C(C/C=C(\C)C#CC=C(C)C)OC(C)=O` (stereo not drawn), the TGI in [1] is over 100 µM; in [2], over 100 µM; in experiment [3] it was over 100 µM; in experiment [4] it was 98.6 µM; in experiment [5], over 100 µM; in [6], 73.7 µM. Also, the figures for the TGI in experiment [7], in experiment [8] and in experiment [9] were 54.6 µM, over 100 µM and over 100 µM, respectively.
Consider `O=C(O)CSc1n[nH]c(-c2ccc(O)cc2)n1`, for which the TGI in [1], in experiment [2], in [3], in [4], in experiment [5] and in [6] was over 100 µM in each case. In addition, the TGI in experiment [7], in experiment [8] and in [9] was over 100 µM throughout.
For the compound `Cc1cnc2c(C)ccc([N+](=O)[O-])c2c1NCCCN(C)C`, the TGI in experiment [1], in experiment [2], in experiment [3], in experiment [4], in experiment [5] and in experiment [6] was over 100 µM throughout. Moreover, the TGI in experiment [7], in [8] and in [9] was over 100 µM in each case.
Take `COc1ccc(N=C2CSc3nnc(-c4cc(F)c(Cl)cc4Cl)n3N2)cc1`: the GI50 is 1.5 µM in [1]; 2.33 µM in [2]; 0.515 µM in experiment [3]; 0.572 µM in [4]; 2.24 µM in [5]; 0.296 µM in experiment [6]. Further, the GI50 in experiment [7] is 1.05 µM; in experiment [8], 0.553 µM; in [9], 0.497 µM. Besides, the TGI was 4.42 µM in experiment [1]; 11.5 µM in experiment [2]; 18.1 µM in experiment [3]; 8.27 µM in experiment [4]; 15.9 µM in experiment [5]; 0.885 µM in [6]. The TGI in experiment [7] came out at 2.63 µM; in [8], 13.1 µM; in experiment [9] it was 10.8 µM.
Regarding `N#CCC1COc2ccccc2O1` (stereo not drawn), the TGI in experiment [1], in experiment [2], in experiment [3], in experiment [4], in [5] and in experiment [6] was over 10 µM in each case. The TGI in [7], in experiment [8] and in experiment [9] was over 10 µM in each case.
As for `CC1OC(OCC2OC(Oc3c(-c4ccc(O)cc4)oc4cc(O)cc(O)c4c3=O)C(OC3OCC(O)(CO)C3O)C(O)C2O)C(O)C(O)C1O` (stereo not drawn), the TGI in experiment [1] was over 100 µM; in experiment [2], over 100 µM; in [3], 74.9 µM; in experiment [4], over 100 µM; in experiment [5] it was over 100 µM; in experiment [6], over 100 µM. The TGI in [7], in [8] and in experiment [9] was over 100 µM throughout.
